Data on four compounds can be found in PMC10652723 (ACS Omega, 2023).

For series [1], the target named is SARS-CoV-2 RNA polymerase (RdRp) (Severe acute respiratory syndrome coronavirus 2, UniProt P0DTD1). The experiment in a line: RdRp inhibition assay. The series is classed as biochemical. The following applies: Figure 4; result in words.
The next series relates to SARS-CoV-2. It counts as cell-based. The following applies: for anti-SARS-CoV-2 activity (library screening): tetrazolium dye method, result in words.
In the next series the test system is neural stem cells. The following applies: result in words; cited from earlier work.
Series [2] has as its system 3-chymotrypsin-like (3CL) protease of SARS-CoV-2. The following applies: result in words; cited from earlier work.
The next series relates to VeroE6/TMPRSS2 cells. The following applies: at a concentration of 100 μM; result in words.

Entries after “also recorded” stand apart in the source; their conditions may differ.

On to `CC1=C(C/C=C(\C)CC/C=C(\C)Cc2cccc3ccccc23)C(=O)c2ccccc2C1=O` [Compound 2], for which, in series [1], the “Inhibitory effect on SARS-CoV-2 RdRp activity” value (“Inhibitory effect” for short) was “inhibited RdRp in a concentration-dependent manner”. In the series with SARS-CoV-2, the “anti-SARS-CoV-2 activity (library screening)” value is reported as “anti-SARS-CoV-2 activity was observed”. The neuronal differentiation activity entry with neural stem cells is “induce neural stem cells to differentiate into neurons”.
As for `CC1=CC(=O)c2ccccc2C1=O` [vitamin K3, menadione], the “inhibition of 3CL protease of SARS-CoV-2” value in series [2] is on record as “inhibit”.
For the compound `CC1=C(C/C=C(\C)CC/C=C(\C)Cc2cccc(C)c2)C(=O)c2ccccc2C1=O` [Compound 1], the “Inhibitory effect” value in series [1] is “inhibited RdRp in a concentration-dependent manner”. For the same compound, in the series on SARS-CoV-2, the “Microscopic observation of cell survival” value is given as “survived as well as control A” and the “anti-SARS-CoV-2 activity (library screening)” value is on record as “anti-SARS-CoV-2 activity was observed”. For the same compound, in the series on neural stem cells, the neuronal differentiation activity result is on record as “higher neuronal differentiation activity than natural vitamin K homologues; also recorded: induce neural stem cells to differentiate into neurons”.
`CC1=C(C/C=C(\C)CC/C=C(\C)Cn2cnc3c(Cl)ncnc32)C(=O)c2ccccc2C1=O` [Compound 16, 2-((2E,6E)-8-(6-Chloro-9H-purin-9-yl)-3,7-dimethylocta-2,6-dien-1-yl)-3-methylnaphthalene-1,4-dione]: the “Inhibitory effect” value in series [1] is “inhibited RdRp in a concentration-dependent manner”. In addition, the toxicity entry with VeroE6/TMPRSS2 cells is reported as “no toxicity”.
